“Also recorded” adds a separate entry of the source. Where a SMILES comes first, the peptide text is derived from it.
Columns and labels:
Assay type in all cases: cell-based
SKHep1/CDH3 = assay: 51Cr release assay of peptide-induced human CTLs against cancer cell line; details: FIG. 4C: CTLs from PBMCs of HLA-A2 positive cancer patients
Procedure: (§1) Human pancreatic cancer cell line PK8 was kindly provided by the Cell Resource Center for Biomedical Research, Institute of Development, Aging and Cancer, Tohoku University. Human colon cancer cell line HCT116 was kindly provided by Dr. B. Vogelstein, Johns Hopkins University (Baltimore, Md.). Human liver cancer cell line SKHep1 was kindly provided by Professor Kyogo Ito, Kurume University (Kurume, Japan).
(§2) After 60 hours, the culture medium was recovered and the viral particles were pelleted by ultracentrifugation (50,000×g, two hours).
(§3) PBMCs derived from heparinized blood of HLA-A2 positive pancreatic cancer patients, gastric cancer patients, colorectal cancer patients, or healthy donors were isolated by Ficoll-Conray density gradient centrifugation. […] DCs were pulsed with 20 μg/mL of a candidate peptide in the presence of 4 μg/mL β2-microglobulin (Sigma-Aldrich, St. Louis, Mo., USA) for two hours at 37° C. in AIM-V (Invitrogen) containing 2% heat-inactivated autologous plasma. These DCs were then irradiated (40 Gy) and incubated with CD8 positive cells. The incubation was carried out in 24-well plates, which were prepared to contain in each well 2 mL of AIM-V supplemented with 2% autologous plasma, 1×10^5 peptide-pulsed DCs, 2×10^6 CD8^+ T cells, and 5 ng/mL of human recombinant IL-7 (Wako, Osaka, Japan). After two days, these cultures were supplemented with human recombinant IL-2 (PeproTec Inc.) to a final concentration of 20 IU/mL. Two additional weekly stimulations with the same peptide-pulsed autologous DCs using the same procedure were carried out on day 7 and day 14. Six days after the last stimulation, the antigen-specific responses of induced CTLs were evaluated by ^51Cr release assay and IFN-γ ELISPOT assay.

PANC1/CDH3 = assay: as above; details: for cytotoxicity to PANC1/CDH3: FIG. 4C: CTLs from PBMCs of HLA-A2 positive cancer patients
Procedure: as §1, §2, §3

HCT116 = assay: as above; details: for cytotoxicity to HCT116: FIG. 4C: CTLs from PBMCs of HLA-A2 positive cancer patients; for cytotoxicity to HCT116 (CDH3+, HLA-A2+): CTLs from healthy donors
Excerpt: as §1, §3

HSC3 = assay: as above; details: CTLs from healthy donors
Excerpt: as §1, §3

T2 cells = assay: 51Cr release assay of peptide-induced human CTLs against peptide-pulsed T2 cells; details: CTLs induced from PBMCs of HLA-A2 positive healthy donors, three stimulations
Excerpt: as §1
PBMCs derived from heparinized blood of HLA-A2 positive pancreatic cancer patients, gastric cancer patients, colorectal cancer patients, or healthy donors were isolated by Ficoll-Conray density gradient centrifugation. […] DCs were pulsed with 20 μg/mL of a candidate peptide in the presence of 4 μg/mL β2-microglobulin (Sigma-Aldrich, St. Louis, Mo., USA) for two hours at 37° C. in AIM-V (Invitrogen) containing 2% heat-inactivated autologous plasma. These DCs were then irradiated (40 Gy) and incubated with CD8 positive cells. […] Six days after the last stimulation, the antigen-specific responses of induced CTLs were evaluated by ^51Cr release assay and IFN-γ ELISPOT assay.
CD8 T cells sorted from PBMCs were incubated with autologous mononuclear cell (monocyte)-derived DCs pulsed with each peptide. After three stimulations, cytocidal effect against peptide-pulsed T2 cells was evaluated by ^51Cr release assay (FIG. 4A) and IFN-γ ELISPOT assay.

PANC1 = assay: 51Cr release assay of peptide-induced human CTLs against cancer cell line; details: CTLs from healthy donors
Excerpt: as §1, §3

SKHep1 = assay: as above; details: CTLs from healthy donors
Excerpt: as §1, §3

PK8 = assay: as above; details: CTLs from healthy donors
Excerpt: as §1, §3

SMILES	cytotoxicity to SKHep1/CDH3 (CDH3+, HLA-A2+) (SKHep1/CDH3)	cytotoxicity to PANC1/CDH3 (PANC1/CDH3)	cytotoxicity to HCT116 (HCT116)	cytotoxicity to HSC3 (CDH3+, HLA-A2+) (HSC3)	cytotoxicity (cytocidal effect) against peptide-pulsed T2 cells (T2 cells; listed as CDH3-7757-765)	cytotoxicity to HCT116 (CDH3+, HLA-A2+) (HCT116)	cytotoxicity to PANC1/CDH3 (CDH3+, HLA-A2+) (PANC1/CDH3; CTLs from healthy donors)	cytotoxicity to PANC1 (CDH3−, HLA-A2+) (PANC1)	cytotoxicity to SKHep1 (CDH3−, HLA-A2+) (SKHep1)	cytotoxicity to PK8 (CDH3+, HLA-A2−) (PK8)	cytotoxicity (cytocidal effect) against peptide-pulsed T2 cells (T2 cells; listed as CDH3-4655-663)
CC[C@H](C)[C@H](NC(=O)[C@@H](NC(=O)[C@@H](N)Cc1ccccc1)[C@@H](C)CC)C(=O)N[C@@H](CCC(=O)O)C(=O)N[C@@H](CC(N)=O)C(=O)N[C@@H](CC(C)C)C(=O)N[C@@H](CCCCN)C(=O)N[C@@H](C)C(=O)N[C@@H](C)C(=O)O [CDH3-7, FIIENLKAA] (H-FIIENLKAA-OH)	exhibited cytotoxicity	exhibited cytotoxicity	exhibited cytotoxicity	exhibited cytotoxicity	exhibited cytocidal effect; also recorded: exhibited cytotoxicity						
CC(C)C[C@H](NC(=O)[C@@H](NC(=O)[C@H](C)NC(=O)[C@H](Cc1ccc(O)cc1)NC(=O)[C@@H](NC(=O)[C@H](CC(N)=O)NC(=O)[C@H](Cc1ccc(O)cc1)NC(=O)[C@H](CC(C)C)NC(=O)[C@@H](N)CO)[C@@H](C)O)[C@@H](C)O)C(=O)O [HIV peptide, SLYNTYATL, reference compound] (H-SLYNTYATL-OH)						did not exhibit cytotoxicity; also recorded: did not show cytotoxicity					
CC[C@H](C)[C@H](NC(=O)[C@@H](N)Cc1ccccc1)C(=O)N[C@@H](CC(C)C)C(=O)N1CCC[C@H]1C(=O)N[C@H](C(=O)N[C@@H](CC(C)C)C(=O)NCC(=O)N[C@@H](C)C(=O)N[C@H](C(=O)O)C(C)C)C(C)C [CDH3-4, FILPVLGAV] (H-FILPVLGAV-OH)	exhibited cytotoxicity	exhibited cytotoxicity	exhibited cytotoxicity	exhibited in healthy donors cytotoxicity		exhibited in healthy donors cytotoxicity	exhibited in healthy donors cytotoxicity	did not exhibit the same effect	did not exhibit the same effect	did not exhibit the same effect	exhibited cytocidal effect; also recorded: exhibited cytotoxicity

Source: patent US8455444B2, “CDH3 peptide and medicinal agent comprising the same” (Oncotherapy Science, Inc., priority 2007, dated 2013)
